Read-outs that look alike come from different tables or passages of the source.
Experiments:
CXCR4 positive tumors = conditions: PET, xenograft mouse model, RBC binding blocked with non-radioactive 4-FBz-T140, ref [31]; cited from earlier work
Excerpt: (§1) However, due to the complex and time-consuming radiolabeling procedure, they developed another analog, (Al[^18F]NOTA-T140), using the Al-F me ...

red blood cells (RBCs) = conditions: blocked by non-radioactive standard 4-FBz-T140 peptide; ref [31]; cited from earlier work
Excerpt: as §1

CXCR4 = tested on: CXCR4; parameters: method as in earlier work; conditions: previously reported, ref [24],[31],[48],[49],[50],[51] (collective), cited from earlier work
HIV = conditions: 4-fluorobenzoyl group introduced on T140-based pharmacophore; ref [30]; cited from earlier work
Excerpt: Numerous truncated peptide analogs that mimic the function of CXCL12 have been reported. Tamamura et al. described the synthesis of novel 14-amino acid peptide inhibitors (T134, T140) based on the structure of their previously reported 18-amino acid peptide, T22, for inhibitory activity against HIV-1 entry. […] However, due to the complex and time-consuming radiolabeling procedure, they developed another analog, (Al[^18F]NOTA-T140), using the Al-F me ...

[1] = Hydrolysis of 6-[^18F]SFPy to 6-[^18F]fluoronicotinic acid (HPLC); format: physicochemical; conditions: room temperature, 4h post radiolabeling; HPLC method B (Vydac C-4), radio detector
Procedure: Figure 2 HPLC analysis (method B) of 6-[^18F]SFPy (A) Crude reaction mixture; (B) Crude reaction mixture co-injected with the non-radioactive standard; (C) Pure; (D) Pure co-injected with the non-radioactive standard; (E) After 4h of labeling at room temperature co-injected with the non-radioactive standard, 6-fluoronicotinic acid. Solid line, in-line radio detector; dotted line, UV detector at 254 nm. Retention time (min): 6-[^18F]SFPy, 4.0; compound 4, 4.1; 6-[^18F]fluoronicotinic acid, 2.8.
Method B (HPLC conditions for analysis): Vydac C-4 (2) column (4.6 × 150 mm, 5 µ), mobile phase: 15–22% B in 10 min; B = acetonitrile (0.1% TFA), A = Water (0.1% TFA), flow rate of 1 mL/min; tR = ~8 min.

What does the source list for “4-[^18F]fluorobenzoyl-TN14003 [4-[^18F]FBz-T140]”?
tumor-to-background ratios (in words) (CXCR4 positive tumors): high tumor-to-background ratios; binding to red blood cells (in words) (red blood cells (RBCs)): elevated binding

What does the source list for 4-fluorobenzoyl-TN14003 [4-FBz-T140]?
IC50 (CXCR4; first of two values printed for this analog): 0.99 nM; IC50 (CXCR4; second of two values printed for this analog): 1.75 nM; anti-HIV activity (in words) (HIV): enhancement of anti-HIV activity

Which “conversion to 6-[^18F]fluoronicotinic acid (slow hydrolysis)” value [1] does the source give for `O=C(ON1C(=O)CCC1=O)c1ccc([18F])nc1` [6-[^18F]SFPy] here?
Its value is 15%.

— publication PMC7504725, “Automated Synthesis of Fluorine-18 Labeled CXCR4 Ligand via the Conjugation with Nicotinic Acid N-Hydroxysuccinimide Ester (6-[^18F]SFPy)” (Molecules, 2020)
